The source of these data is article PMC5218480 (PLoS ONE, 2017).

The subject of this test is MV-4-11 cells. Briefly: Gene expression microarray analysis (Affymetrix PrimeView) and GSEA. Type of test: cell-based, human. Also on record: RFU PODN (11730768_x_at) / Fold change /veh PODN (11730768_x_at) / RFU LINC00158 (11744669_a_at) / Fold change /veh LINC00158 (11744669_a_at) / RFU DUSP10 (11751237_a_at) / Fold change /veh DUSP10 (11751237_a_at) / RFU ID3 (11757404_x_at) / Fold change /veh ID3 (11757404_x_at) / RFU PLEKHG5 (11737974_s_at) / Fold change /veh PLEKHG5 (11737974_s_at) / RFU LRRC4B (11730491_at) / Fold change /veh LRRC4B (11730491_at) / RFU GIMAP4 (11747438_a_at) / Fold change /veh GIMAP4 (11747438_a_at) / RFU KRT8 (11758183_x_at) / Fold change /veh KRT8 (11758183_x_at) / RFU CNN1 (11734310_a_at) / Fold change /veh CNN1 (11734310_a_at) / RFU VPS37D (11726825_at) / Fold change /veh VPS37D (11726825_at) / RFU C10orf10 (11716522_x_at) / Fold change /veh C10orf10 (11716522_x_at) / RFU KIR2DL2 /// KIR2DL4 /// KIR2DL5A /// KIR2DL5B /// KIR2DS1 /// KIR2DS2 /// KIR2DS3 /// KIR2DS4 /// KIR3DL3 /// KIR3DL3 /// KIR3DS1 (11738374_at) / Fold change /veh KIR2DL2 /// KIR2DL4 /// KIR2DL5A /// KIR2DL5B /// KIR2DS1 /// KIR2DS2 /// KIR2DS3 /// KIR2DS4 /// KIR3DL3 /// KIR3DL3 /// KIR3DS1 (11738374_at) / RFU C1QL1 (11718748_at) / Fold change /veh C1QL1 (11718748_at) / RFU TMPRSS4 (11747572_a_at) / Fold change /veh TMPRSS4 (11747572_a_at) / RFU HAMP (11756126_x_at) / Fold change /veh HAMP (11756126_x_at) / RFU RNFT2 (11725882_a_at) / Fold change /veh RNFT2 (11725882_a_at) / RFU NR4A2 (11747474_a_at) / Fold change /veh NR4A2 (11747474_a_at) / RFU ABCC12 (11746883_a_at) / Fold change /veh ABCC12 (11746883_a_at) / RFU TMEM136 (11760407_x_at) / Fold change /veh TMEM136 (11760407_x_at) / RFU CLDN22 /// WWC2 (11732394_at) / Fold change /veh CLDN22 /// WWC2 (11732394_at) / RFU HLA-DPB1 (11760878_x_at) / Fold change /veh HLA-DPB1 (11760878_x_at) / RFU SPINT1 (11716480_a_at) / Fold change /veh SPINT1 (11716480_a_at) / RFU GAP43 (11754022_s_at) / Fold change /veh GAP43 (11754022_s_at) / RFU A4GNT (11735810_at) / Fold change /veh A4GNT (11735810_at) / RFU PRB3 (11715151_x_at) / Fold change /veh PRB3 (11715151_x_at) / RFU TUBB4B (11761932_at) / Fold change /veh TUBB4B (11761932_at) / RFU CAPN14 (11732068_a_at) / Fold change /veh CAPN14 (11732068_a_at) / RFU TMCC2 (11721928_a_at) / Fold change /veh TMCC2 (11721928_a_at) / RFU IRGQ (11745062_a_at) / Fold change /veh IRGQ (11745062_a_at) / RFU FAM174B (11720279_a_at) / Fold change /veh FAM174B (11720279_a_at) / RFU TMPRSS4 (11748680_a_at) / Fold change /veh TMPRSS4 (11748680_a_at) / RFU FAM212B (11763350_a_at) / Fold change /veh FAM212B (11763350_a_at) / RFU PLEKHG5 (11743358_a_at) / Fold change /veh PLEKHG5 (11743358_a_at) / RFU ZSCAN30 (11745921_a_at) / Fold change /veh ZSCAN30 (11745921_a_at) / RFU CMKLR1 (11741424_a_at) / Fold change /veh CMKLR1 (11741424_a_at) / RFU LOC101060620 /// MAPK8IP1 (11723275_at) / Fold change /veh LOC101060620 /// MAPK8IP1 (11723275_at) / RFU SPTSSB (11747773_x_at) / Fold change /veh SPTSSB (11747773_x_at) / RFU PRSS12 (11739890_at) / Fold change /veh PRSS12 (11739890_at) / RFU BIN1 (11741810_x_at) / Fold change /veh BIN1 (11741810_x_at) / RFU WNT11 (11732464_a_at) / Fold change /veh WNT11 (11732464_a_at) / RFU C10orf10 (11716521_a_at) / Fold change /veh C10orf10 (11716521_a_at) / RFU C5orf56 (11738089_at) / Fold change /veh C5orf56 (11738089_at) / RFU CYB561 (11721691_x_at) / Fold change /veh CYB561 (11721691_x_at) / RFU ANKRD19P (11752326_a_at) / Fold change /veh ANKRD19P (11752326_a_at) / RFU OR2T12 /// OR2T33 /// OR2T8 (11738714_s_at) / Fold change /veh OR2T12 /// OR2T33 /// OR2T8 (11738714_s_at) / RFU VCAN (11748164_a_at) / Fold change /veh VCAN (11748164_a_at) / RFU JSRP1 (11732532_at) / Fold change /veh JSRP1 (11732532_at) / RFU KRTAP10-11 (11738290_x_at) / Fold change /veh KRTAP10-11 (11738290_x_at) / RFU MYO3A (11730013_a_at) / Fold change /veh MYO3A (11730013_a_at) / RFU EBF3 (11725865_a_at) / Fold change /veh EBF3 (11725865_a_at) / RFU CAMK2N1 (11719241_x_at) / Fold change /veh CAMK2N1 (11719241_x_at) / RFU C5orf56 (11738088_a_at) / Fold change /veh C5orf56 (11738088_a_at) / RFU OLFML3 (11715873_a_at) / Fold change /veh OLFML3 (11715873_a_at) / RFU LOC100653217 /// NTM (11731650_a_at) / Fold change /veh LOC100653217 /// NTM (11731650_a_at) / RFU MAPK11 (11762145_a_at) / Fold change /veh MAPK11 (11762145_a_at) / RFU FIZ1 (11724087_x_at) / Fold change /veh FIZ1 (11724087_x_at) / RFU OASL (11726364_x_at) / Fold change /veh OASL (11726364_x_at) / RFU SOX15 (11748057_x_at) / Fold change /veh SOX15 (11748057_x_at) / RFU CD79A (11719716_a_at) / Fold change /veh CD79A (11719716_a_at) / RFU HIST1H1D (11736915_at) / Fold change /veh HIST1H1D (11736915_at) / RFU CASKIN2 (11723855_a_at) / Fold change /veh CASKIN2 (11723855_a_at) / RFU LOC730098 (11760151_x_at) / Fold change /veh LOC730098 (11760151_x_at) / RFU OR4N2 (11742367_at) / Fold change /veh OR4N2 (11742367_at) / RFU PRRT2 (11749266_a_at) / Fold change /veh PRRT2 (11749266_a_at) / RFU SNX32 (11753110_a_at) / Fold change /veh SNX32 (11753110_a_at) / RFU CDHR5 (11726645_a_at) / Fold change /veh CDHR5 (11726645_a_at) / RFU RCAN1 (11760418_a_at) / Fold change /veh RCAN1 (11760418_a_at) / RFU FAM167A (11723789_a_at) / Fold change /veh FAM167A (11723789_a_at) / RFU FAM26E (11764081_at) / Fold change /veh FAM26E (11764081_at) / RFU ISYNA1 (11749810_s_at) / Fold change /veh ISYNA1 (11749810_s_at) / RFU ACY1 (11761880_at) / Fold change /veh ACY1 (11761880_at) / RFU 11764098_at / Fold change /veh 11764098_at / RFU SAMD14 (11745864_x_at) / Fold change /veh SAMD14 (11745864_x_at) / RFU NPB (11741838_a_at) / Fold change /veh NPB (11741838_a_at) / RFU TMPRSS6 (11731388_a_at) / Fold change /veh TMPRSS6 (11731388_a_at) / RFU KRTAP10-2 (11738614_at) / Fold change /veh KRTAP10-2 (11738614_at) / RFU ARHGAP8 /// PRR5-ARHGAP8 (11727945_x_at) / Fold change /veh ARHGAP8 /// PRR5-ARHGAP8 (11727945_x_at) / RFU KRTAP5-7 /// NADSYN1 (11734609_at) / Fold change /veh KRTAP5-7 /// NADSYN1 (11734609_at) / RFU RASL12 (11751679_a_at) / Fold change /veh RASL12 (11751679_a_at) / RFU CDKN2B (11736163_a_at) / Fold change /veh CDKN2B (11736163_a_at) / RFU PRF1 (11729649_at) / Fold change /veh PRF1 (11729649_at) / RFU, ZNF638 /// ZNF638-IT1 / Fold change vs veh, ZNF638 /// ZNF638-IT1 / RFU, PANK3 / Fold change vs veh, PANK3 / RFU, SH3YL1 / Fold change vs veh, SH3YL1 / RFU, ZEB2 / Fold change vs veh, ZEB2 / RFU, NRIP1 / Fold change vs veh, NRIP1 / RFU, PTTG1IP / Fold change vs veh, PTTG1IP / RFU, CAPN2 / Fold change vs veh, CAPN2 / RFU, MED14 / Fold change vs veh, MED14 / RFU, SNORA58 / Fold change vs veh, SNORA58 / RFU, C1orf63 / Fold change vs veh, C1orf63 / RFU, LRRFIP1 / Fold change vs veh, LRRFIP1 / RFU, NDUFAF7 / Fold change vs veh, NDUFAF7 / RFU, SLC12A2 / Fold change vs veh, SLC12A2 / RFU, IBTK / Fold change vs veh, IBTK / RFU, ESF1 / Fold change vs veh, ESF1 / Fold change vs veh, TMEM50B / RFU, TAOK1 / Fold change vs veh, TAOK1 / RFU, ACBD3 / Fold change vs veh, ACBD3 / RFU, TMA16 / Fold change vs veh, TMA16 / RFU, RWDD3 / Fold change vs veh, RWDD3 / RFU, BCAT1 / Fold change vs veh, BCAT1 / RFU, EDEM3 / Fold change vs veh, EDEM3 / RFU, TMEM33 / Fold change vs veh, TMEM33 / RFU, WDR75 / Fold change vs veh, WDR75 / RFU, AHCTF1 / Fold change vs veh, AHCTF1 / RFU, TFRC / Fold change vs veh, TFRC / RFU, ZDHHC17 / Fold change vs veh, ZDHHC17 / RFU, NOM1 / Fold change vs veh, NOM1 / RFU, ARL8B / Fold change vs veh, ARL8B / RFU, ZBTB11 / Fold change vs veh, ZBTB11 / RFU, TAMM41 / Fold change vs veh, TAMM41 / RFU, KIAA1704 /// LOC100996395 / Fold change vs veh, KIAA1704 /// LOC100996395 / RFU, ING1 / Fold change vs veh, ING1 / RFU, TRMT61B / Fold change vs veh, TRMT61B / RFU, FUBP3 / Fold change vs veh, FUBP3 / RFU, TP53 / Fold change vs veh, TP53 / RFU, TNKS2 / Fold change vs veh, TNKS2 / RFU, ZFP14 / Fold change vs veh, ZFP14 / RFU, ACTR2 / Fold change vs veh, ACTR2 / RFU, PPP3R1 / Fold change vs veh, PPP3R1 / RFU, PIK3R1 / Fold change vs veh, PIK3R1 / RFU, HNRNPA1 / Fold change vs veh, HNRNPA1 / RFU, RNF170 / Fold change vs veh, RNF170 / RFU, ZNF28 / Fold change vs veh, ZNF28 / RFU, RNGTT / Fold change vs veh, RNGTT / RFU, OGT / Fold change vs veh, OGT / RFU, BRD1 / Fold change vs veh, BRD1 / RFU, MARS / Fold change vs veh, MARS / RFU, ZNF655 / Fold change vs veh, ZNF655 / RFU, FAHD1 / Fold change vs veh, FAHD1 / RFU, BDP1 / Fold change vs veh, BDP1 / RFU, LRRCC1 / Fold change vs veh, LRRCC1 / RFU, ARID1A / Fold change vs veh, ARID1A / RFU, ZNF146 / Fold change vs veh, ZNF146 / RFU, ZNF330 / Fold change vs veh, ZNF330 / RFU, GPN3 / Fold change vs veh, GPN3 / RFU, C9orf123 / Fold change vs veh, C9orf123 / RFU, N4BP2L2 / Fold change vs veh, N4BP2L2 / RFU, ARFIP1 / Fold change vs veh, ARFIP1 / RFU, FAM179B / Fold change vs veh, FAM179B / RFU, BCL10 / Fold change vs veh, BCL10 / RFU, UHRF1BP1L / Fold change vs veh, UHRF1BP1L / RFU, BET1 / Fold change vs veh, BET1 / RFU, CNOT2 / Fold change vs veh, CNOT2 / RFU, ZNF268 / Fold change vs veh, ZNF268 / Fold change vs veh, ZNF507 / RFU, DGCR2 / Fold change vs veh, DGCR2 / RFU, WDSUB1 / Fold change vs veh, WDSUB1 / Fold change vs veh, HSP90B1 /// MIR3652 / RFU, ADSS / Fold change vs veh, ADSS / RFU, GK / Fold change vs veh, GK / RFU, ZNF148 / Fold change vs veh, ZNF148 / RFU, TAF9 / Fold change vs veh, TAF9 / RFU, SLC1A5 / Fold change vs veh, SLC1A5 / RFU, SLMO2 / Fold change vs veh, SLMO2 / RFU, ABCC4 / Fold change vs veh, ABCC4 / RFU, LOC101060439 /// RAP1B / Fold change vs veh, LOC101060439 /// RAP1B / RFU, RFX7 / Fold change vs veh, RFX7 / RFU, GTPBP10 / Fold change vs veh, GTPBP10 / RFU, CNEP1R1 / Fold change vs veh, CNEP1R1 / RFU, BIVM-ERCC5 /// ERCC5 / Fold change vs veh, BIVM-ERCC5 /// ERCC5 / RFU, ILF3 / Fold change vs veh, ILF3 / RFU 11762660_at / Fold change /veh 11762660_at / RFU VCAN (11757783_s_at) / Fold change /veh VCAN (11757783_s_at) / RFU DDX43 (11728927_at) / Fold change /veh DDX43 (11728927_at) / RFU KRT8 (11758188_x_at) / Fold change /veh KRT8 (11758188_x_at) / RFU NKD1 (11759106_at) / Fold change /veh NKD1 (11759106_at) / RFU SRD5A1 (11742802_a_at) / Fold change /veh SRD5A1 (11742802_a_at) / RFU TPSAB1 /// TPSB2 (11721975_s_at) / Fold change /veh TPSAB1 /// TPSB2 (11721975_s_at) / RFU GSTM3 (11746129_a_at) / Fold change /veh GSTM3 (11746129_a_at) / RFU IL23R (11737362_x_at) / Fold change /veh IL23R (11737362_x_at) / RFU TMEM51 (11727254_a_at) / Fold change /veh TMEM51 (11727254_a_at) / RFU PIWIL2 (11732686_x_at) / Fold change /veh PIWIL2 (11732686_x_at) / RFU ORM1 (11744905_x_at) / Fold change /veh ORM1 (11744905_x_at) / RFU CCDC152 (11743942_at) / Fold change /veh CCDC152 (11743942_at) / RFU ECM1 (11717891_a_at) / Fold change /veh ECM1 (11717891_a_at) / RFU IL23R (11748794_a_at) / Fold change /veh IL23R (11748794_a_at) / RFU TNFAIP8L3 (11732012_x_at) / Fold change /veh TNFAIP8L3 (11732012_x_at) / RFU MBOAT4 (11741988_at) / Fold change /veh MBOAT4 (11741988_at) / RFU 11764193_at / Fold change /veh 11764193_at / RFU TMEM53 (11763286_at) / Fold change /veh TMEM53 (11763286_at) / RFU MAGEB2 (11727129_at) / Fold change /veh MAGEB2 (11727129_at) / RFU TMEM200A (11744735_a_at) / Fold change /veh TMEM200A (11744735_a_at) / RFU CCDC152 (11751479_a_at) / Fold change /veh CCDC152 (11751479_a_at) / RFU FAM211A (11726209_a_at) / Fold change /veh FAM211A (11726209_a_at) / RFU RGS16 (11746705_a_at) / Fold change /veh RGS16 (11746705_a_at) / RFU VCAN (11755009_s_at) / Fold change /veh VCAN (11755009_s_at) / RFU RHOB (11743442_s_at) / Fold change /veh RHOB (11743442_s_at) / RFU RGS16 (11720943_a_at) / Fold change /veh RGS16 (11720943_a_at) / RFU RGS16 (11720944_at) / Fold change /veh RGS16 (11720944_at) / RFU, VPS4B / Fold change vs veh, VPS4B / RFU, CREB1 / Fold change vs veh, CREB1 / RFU, DNAJC13 / Fold change vs veh, DNAJC13 / RFU, GNAQ / Fold change vs veh, GNAQ / RFU, CDK5R1 / Fold change vs veh, CDK5R1 / RFU, ZRANB3 / Fold change vs veh, ZRANB3 / RFU, CUL4A / Fold change vs veh, CUL4A / RFU, CCNY / Fold change vs veh, CCNY / RFU, UFL1 / Fold change vs veh, UFL1 / RFU, COG3 / Fold change vs veh, COG3 / RFU, DIAPH2 / Fold change vs veh, DIAPH2 / RFU, SKA2 / Fold change vs veh, SKA2 / RFU, AFF3 / Fold change vs veh, AFF3 / RFU, LMF1 / Fold change vs veh, LMF1 / RFU, IPO11 / Fold change vs veh, IPO11 / RFU, DFFB / Fold change vs veh, DFFB / RFU, FOXP1 / Fold change vs veh, FOXP1 / RFU, CARD8 / Fold change vs veh, CARD8 / RFU, STRN3 / Fold change vs veh, STRN3 / RFU, ADK / Fold change vs veh, ADK / RFU, RASSF2 / Fold change vs veh, RASSF2 / RFU, WIPF1 / Fold change vs veh, WIPF1 / RFU, LARP1B / Fold change vs veh, LARP1B / RFU, RASA1 / Fold change vs veh, RASA1 / RFU, RB1 / Fold change vs veh, RB1 / RFU, PPFIA1 / Fold change vs veh, PPFIA1 / RFU, MAT2A / Fold change vs veh, MAT2A / RFU, CCT5 / Fold change vs veh, CCT5 / RFU, WDR92 / Fold change vs veh, WDR92 / RFU, CUX1 / Fold change vs veh, CUX1 / RFU, TTC7A / Fold change vs veh, TTC7A / RFU, TMEM135 / Fold change vs veh, TMEM135 / RFU, DEPTOR / Fold change vs veh, DEPTOR / RFU, CPM / Fold change vs veh, CPM / RFU, DNAJB6 / Fold change vs veh, DNAJB6 / RFU, CACNA2D3 / Fold change vs veh, CACNA2D3 / RFU, DTX4 / Fold change vs veh, DTX4 / RFU, TFCP2 / Fold change vs veh, TFCP2 / RFU, GMCL1 /// GMCL1P1 / Fold change vs veh, GMCL1 /// GMCL1P1 / RFU, AEBP2 / Fold change vs veh, AEBP2 / RFU, SNHG1 /// SNORD22 /// SNORD25 /// SNORD26 /// SNORD27 /// SNORD28 /// SNORD29 /// SNORD31 / Fold change vs veh, SNHG1 /// SNORD22 /// SNORD25 /// SNORD26 /// SNORD27 /// SNORD28 /// SNORD29 /// SNORD31 / Fold change (Aza/veh), C12orf56 (ProbeSet 11735607_a_at) / Fold change (ACY-1035/veh), C12orf56 (ProbeSet 11735607_a_at) / Fold change (Aza/veh), FGFR1OP (ProbeSet 11751329_s_at) / Fold change (ACY-1035/veh), FGFR1OP (ProbeSet 11751329_s_at) / Fold change (Aza/veh), VPS36 (ProbeSet 11739960_a_at) / Fold change (ACY-1035/veh), VPS36 (ProbeSet 11739960_a_at) / RFU SYPL1 (11715823_x_at) / Fold change /veh SYPL1 (11715823_x_at) / RFU IGFBP7 (11715501_s_at) / Fold change /veh IGFBP7 (11715501_s_at) / RFU REEP3 (11722064_at) / Fold change /veh REEP3 (11722064_at) / RFU IGLL1 (11728026_x_at) / Fold change /veh IGLL1 (11728026_x_at): dose or concentration left out as unconfirmed. The settings on record: MV-4-11 cells, 48 hours.

In the case of `Nc1ccc(-c2cccs2)cc1NC(=O)c1ccc2c(c1)cc(C1CC1)n2CCN1CCOCC1` [ACY-1035], the “RFU CASKIN2 (11723855_a_at)” value worked out at 29.44 RFU.
